Drawing on ChEMBL document CHEMBL1201861, “Genomics of Drug Sensitity in Cancer screening data, Wellcome Trust Sanger Institute”, this text covers IC50 for 1 compound.

pIC50: −log10 of the molar value. A value given as a limit tells only on which side of the number the result lay.

One experiment relates to D-263MG. In words: cells. Format: functional, cell-based, Homo sapiens. The following applies: Homo sapiens, D-263MG.
Description: SANGER: Inhibition of human D-263MG cell growth in a cell viability assay.
As a reminder, the pIC50 is the IC50 on a negative log10 scale, so that one unit is a factor of ten. Compound `C/C(=C\c1csc(C)n1)[C@@H]1C[C@@H]2O[C@]2(C)CCC[C@H](C)[C@H](O)[C@@H](C)C(=O)C(C)(C)[C@@H](O)CC(=O)O1` [PATUPILONE] gave a pIC50 of less than 7.49.

For the next experiment, the system named is LU-134-A. Description: cells. The format is functional, cell-based, Homo sapiens. The conditions noted are these: Homo sapiens, LU-134-A.
Description: SANGER: Inhibition of human LU-134-A cell growth in a cell viability assay.
For the compound `C/C(=C\c1csc(C)n1)[C@@H]1C[C@@H]2O[C@]2(C)CCC[C@H](C)[C@H](O)[C@@H](C)C(=O)C(C)(C)[C@@H](O)CC(=O)O1` [PATUPILONE], the pIC50 was 7.80.

A further experiment relates to KM12. In words: cells. Format: functional, cell-based, Homo sapiens. The following applies: Homo sapiens, KM12.
Description: SANGER: Inhibition of human KM12 cell growth in a cell viability assay.
`C/C(=C\c1csc(C)n1)[C@@H]1C[C@@H]2O[C@]2(C)CCC[C@H](C)[C@H](O)[C@@H](C)C(=O)C(C)(C)[C@@H](O)CC(=O)O1` [PATUPILONE] gave a pIC50 of 8.65.

The next experiment relates to LS-411N. In words: cells. The format is functional, cell-based, Homo sapiens. The following applies: Homo sapiens, LS-411N.
`C/C(=C\c1csc(C)n1)[C@@H]1C[C@@H]2O[C@]2(C)CCC[C@H](C)[C@H](O)[C@@H](C)C(=O)C(C)(C)[C@@H](O)CC(=O)O1` [PATUPILONE] had a pIC50 of 7.63.

The test system of a further experiment is LC-2-ad. In words: cells. The format is functional, cell-based, Homo sapiens. The conditions noted are these: Homo sapiens, LC-2-ad.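 Further: growth inhibition of human LC-2-ad cells, read out with a cell viability assay.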
Description: SANGER: Inhibition of human LC-2-ad cell growth in a cell viability assay.
Take `C/C(=C\c1csc(C)n1)[C@@H]1C[C@@H]2O[C@]2(C)CCC[C@H](C)[C@H](O)[C@@H](C)C(=O)C(C)(C)[C@@H](O)CC(=O)O1` [PATUPILONE]: the negative logarithm of the IC50 (pIC50) is greater than 9.90.

The test system of the next experiment is SW 962. In words: cells. The conditions noted are these: Homo sapiens, SW 962. Format: functional, cell-based, Homo sapiens.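 Further: growth inhibition of human SW962 cells, read out by a cell viability assay.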
Description: SANGER: Inhibition of human SW962 cell growth in a cell viability assay.
`C/C(=C\c1csc(C)n1)[C@@H]1C[C@@H]2O[C@]2(C)CCC[C@H](C)[C@H](O)[C@@H](C)C(=O)C(C)(C)[C@@H](O)CC(=O)O1` [PATUPILONE] had a pIC50 of 8.98.

In the next experiment the test system is NCI-H1581. Description: cells. Format: functional, cell-based, Homo sapiens. The following applies: Homo sapiens, NCI-H1581.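 Further: cell growth inhibition read out by a viability assay.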
Description: SANGER: Inhibition of human NCI-H1581 cell growth in a cell viability assay.
Consider `C/C(=C\c1csc(C)n1)[C@@H]1C[C@@H]2O[C@]2(C)CCC[C@H](C)[C@H](O)[C@@H](C)C(=O)C(C)(C)[C@@H](O)CC(=O)O1` [PATUPILONE], for which the pIC50 is less than 7.49.

The test system of another experiment is EW-1. Description: cells. The format is functional, cell-based, Homo sapiens. The conditions noted are these: Homo sapiens, EW-1.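 Further: growth inhibition of the human EW-1 cell line, read out by a cell viability assay.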
Description: SANGER: Inhibition of human EW-1 cell growth in a cell viability assay.
In turn, `C/C(=C\c1csc(C)n1)[C@@H]1C[C@@H]2O[C@]2(C)CCC[C@H](C)[C@H](O)[C@@H](C)C(=O)C(C)(C)[C@@H](O)CC(=O)O1` [PATUPILONE] had a pIC50 of 8.72.

A further experiment concerns MN-60. Description: cells. The format is functional, cell-based, Homo sapiens. The conditions noted are these: Homo sapiens, MN-60.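 Further: growth inhibition of the MN-60 cell line, determined with a cell viability assay.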
Description: SANGER: Inhibition of human MN-60 cell growth in a cell viability assay.
The compound `C/C(=C\c1csc(C)n1)[C@@H]1C[C@@H]2O[C@]2(C)CCC[C@H](C)[C@H](O)[C@@H](C)C(=O)C(C)(C)[C@@H](O)CC(=O)O1` [PATUPILONE] gave a pIC50 of less than 7.49.

The test system of a further experiment is NCI-H526. Description: cells. Format: functional, cell-based, Homo sapiens. The following applies: Homo sapiens, NCI-H526.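 Further: growth inhibition of the human NCI-H526 cell line, measured by a cell viability assay.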
Description: SANGER: Inhibition of human NCI-H526 cell growth in a cell viability assay.
In turn, `C/C(=C\c1csc(C)n1)[C@@H]1C[C@@H]2O[C@]2(C)CCC[C@H](C)[C@H](O)[C@@H](C)C(=O)C(C)(C)[C@@H](O)CC(=O)O1` [PATUPILONE] showed a pIC50 of 8.14.

The test system of the next experiment is KP-N-YS. Description: cells. The format is functional, cell-based, Homo sapiens. The conditions noted are these: Homo sapiens, KP-N-YS.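 Further: cell viability assay measuring inhibition of cell line growth.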
Description: SANGER: Inhibition of human KP-N-YS cell growth in a cell viability assay.
For `C/C(=C\c1csc(C)n1)[C@@H]1C[C@@H]2O[C@]2(C)CCC[C@H](C)[C@H](O)[C@@H](C)C(=O)C(C)(C)[C@@H](O)CC(=O)O1` [PATUPILONE], the pIC50 was 8.41.

The test system of the next experiment is HT. Description: cells. The format is functional, cell-based, Homo sapiens. The following applies: Homo sapiens, HT.
Description: SANGER: Inhibition of human HT cell growth in a cell viability assay.
Consider `C/C(=C\c1csc(C)n1)[C@@H]1C[C@@H]2O[C@]2(C)CCC[C@H](C)[C@H](O)[C@@H](C)C(=O)C(C)(C)[C@@H](O)CC(=O)O1` [PATUPILONE], for which the pIC50 was 7.69.

The next experiment has as its system EW-3. In words: cells. The format is functional, cell-based, Homo sapiens. The conditions noted are these: Homo sapiens, EW-3.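 Further: cell viability assay read-out, IC50 reflects inhibition of growth of the EW-3 cells.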
Description: SANGER: Inhibition of human EW-3 cell growth in a cell viability assay.
As to `C/C(=C\c1csc(C)n1)[C@@H]1C[C@@H]2O[C@]2(C)CCC[C@H](C)[C@H](O)[C@@H](C)C(=O)C(C)(C)[C@@H](O)CC(=O)O1` [PATUPILONE], the pIC50 is less than 7.49.

The next experiment has as its system U-266. Description: cells. Format: functional, cell-based, Homo sapiens. The conditions noted are these: Homo sapiens, U-266.
Description: SANGER: Inhibition of human U-266 cell growth in a cell viability assay.
Take `C/C(=C\c1csc(C)n1)[C@@H]1C[C@@H]2O[C@]2(C)CCC[C@H](C)[C@H](O)[C@@H](C)C(=O)C(C)(C)[C@@H](O)CC(=O)O1` [PATUPILONE]: the pIC50 was 8.01.

The test system of another experiment is RS4-11. Description: cells. The format is functional, cell-based, Homo sapiens. The following applies: Homo sapiens, RS4-11.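 Further: growth inhibition of RS4-11 cells, read out by a cell viability assay.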
Description: SANGER: Inhibition of human RS4-11 cell growth in a cell viability assay.
`C/C(=C\c1csc(C)n1)[C@@H]1C[C@@H]2O[C@]2(C)CCC[C@H](C)[C@H](O)[C@@H](C)C(=O)C(C)(C)[C@@H](O)CC(=O)O1` [PATUPILONE]: the pIC50 was 8.70.

Another experiment relates to NCI-H1648. In words: cells. The conditions noted are these: Homo sapiens, NCI-H1648. Format: functional, cell-based, Homo sapiens.
Description: SANGER: Inhibition of human NCI-H1648 cell growth in a cell viability assay.
As for `C/C(=C\c1csc(C)n1)[C@@H]1C[C@@H]2O[C@]2(C)CCC[C@H](C)[C@H](O)[C@@H](C)C(=O)C(C)(C)[C@@H](O)CC(=O)O1` [PATUPILONE], the pIC50 was 9.01.

The next experiment concerns A253 cell line. In words: cells. The format is functional, cell-based, Homo sapiens. The conditions noted are these: Homo sapiens, A253.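 Further: growth inhibition of A253 cells, read out with a cell viability assay.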
Description: SANGER: Inhibition of human A253 cell growth in a cell viability assay.
For `C/C(=C\c1csc(C)n1)[C@@H]1C[C@@H]2O[C@]2(C)CCC[C@H](C)[C@H](O)[C@@H](C)C(=O)C(C)(C)[C@@H](O)CC(=O)O1` [PATUPILONE], the pIC50 is 7.99.

The subject of a further experiment is HCE-4. Description: cells. The format is functional, cell-based. The following applies: Homo sapiens.
Description: SANGER: Inhibition of human HCE-4 cell growth in a cell viability assay.
With `C/C(=C\c1csc(C)n1)[C@@H]1C[C@@H]2O[C@]2(C)CCC[C@H](C)[C@H](O)[C@@H](C)C(=O)C(C)(C)[C@@H](O)CC(=O)O1` [PATUPILONE], the pIC50 was 8.88.

Another experiment deals with OMC-1. In words: cells. The conditions noted are these: Homo sapiens, OMC-1. The format is functional, cell-based, Homo sapiens.
Description: SANGER: Inhibition of human OMC-1 cell growth in a cell viability assay.
`C/C(=C\c1csc(C)n1)[C@@H]1C[C@@H]2O[C@]2(C)CCC[C@H](C)[C@H](O)[C@@H](C)C(=O)C(C)(C)[C@@H](O)CC(=O)O1` [PATUPILONE] showed a pIC50 of less than 7.49.

For a further experiment, the system named is KALS-1. Description: cells. The conditions noted are these: Homo sapiens, KALS-1; read-out: IC50. Format: functional, cell-based, Homo sapiens.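 Further: growth inhibition of KALS-1 cells, determined with a cell viability assay.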
Description: SANGER: Inhibition of human KALS-1 cell growth in a cell viability assay.
Take `C/C(=C\c1csc(C)n1)[C@@H]1C[C@@H]2O[C@]2(C)CCC[C@H](C)[C@H](O)[C@@H](C)C(=O)C(C)(C)[C@@H](O)CC(=O)O1` [PATUPILONE]: the pIC50 was 8.50.

In the next experiment the test system is MLMA. In words: cells. The following applies: Homo sapiens, MLMA. The format is functional, cell-based, Homo sapiens.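 Further: growth inhibition of MLMA cells (human), determined through a cell viability readout.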
Description: SANGER: Inhibition of human MLMA cell growth in a cell viability assay.
With `C/C(=C\c1csc(C)n1)[C@@H]1C[C@@H]2O[C@]2(C)CCC[C@H](C)[C@H](O)[C@@H](C)C(=O)C(C)(C)[C@@H](O)CC(=O)O1` [PATUPILONE], the pIC50 is 7.85.

The subject of the next experiment is DSH1. In words: cells. Format: functional, cell-based. The conditions noted are these: Homo sapiens.
Description: SANGER: Inhibition of human DSH1 cell growth in a cell viability assay.
With `C/C(=C\c1csc(C)n1)[C@@H]1C[C@@H]2O[C@]2(C)CCC[C@H](C)[C@H](O)[C@@H](C)C(=O)C(C)(C)[C@@H](O)CC(=O)O1` [PATUPILONE], the pIC50 is less than 7.49.

The test system of another experiment is NCI-H1770. Description: cells. Format: functional, cell-based, Homo sapiens. The conditions noted are these: Homo sapiens, NCI-H1770.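 Further: growth inhibition of NCI-H1770 cells determined with a viability readout.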
Description: SANGER: Inhibition of human NCI-H1770 cell growth in a cell viability assay.
For `C/C(=C\c1csc(C)n1)[C@@H]1C[C@@H]2O[C@]2(C)CCC[C@H](C)[C@H](O)[C@@H](C)C(=O)C(C)(C)[C@@H](O)CC(=O)O1` [PATUPILONE], the pIC50 is 9.04.

The next experiment relates to PSN1. In words: cells. Format: functional, cell-based, Homo sapiens. The following applies: Homo sapiens, PSN1.
Description: SANGER: Inhibition of human PSN1 cell growth in a cell viability assay.
Compound `C/C(=C\c1csc(C)n1)[C@@H]1C[C@@H]2O[C@]2(C)CCC[C@H](C)[C@H](O)[C@@H](C)C(=O)C(C)(C)[C@@H](O)CC(=O)O1` [PATUPILONE] showed a pIC50 of 9.76.
